# Columns and labels:
# [1] = molecular target: Fibroblast growth factor receptor 4 (Homo sapiens) (UniProt P22455); experiment: Inhibition of wild-type human partial length FGFR4 (G402 to E713 residues) expressed in bacterial expression system assessed as residual activity at 1 uM by Kinomescan method relative to control
# [2] = molecular target: MAP kinase-activated protein kinase 5 (Homo sapiens) (UniProt Q8IW41); experiment: Inhibition of wild-type human partial length MAPKAPK5 (M1 to D322 residues) expressed in mammalian expression system assessed as residual activity at 1 uM by Kinomescan method relative to control
# [3] = molecular target: Calcium/calmodulin-dependent protein kinase type II subunit gamma (Homo sapiens) (UniProt Q13555); experiment: Inhibition of wild-type human partial length CAMK2G (R9 to A303 residues) expressed in bacterial expression system assessed as residual activity at 1 uM by Kinomescan method relative to control
# [4] = molecular target: Serine/threonine-protein kinase ULK2 (Homo sapiens) (UniProt Q8IYT8); experiment: Inhibition of wild-type human partial length ULK2 (M1 to S301 residues) expressed in mammalian expression system assessed as residual activity at 1 uM by Kinomescan method relative to control
# [5] = molecular target: Proto-oncogene tyrosine-protein kinase Src (Homo sapiens) (UniProt P12931); experiment: Inhibition of wild-type human partial length c-Src (M1 to L450 residues) expressed in bacterial expression system assessed as residual activity at 1 uM by Kinomescan method relative to control
# [6] = molecular target: Serine/threonine-protein kinase 3 (Homo sapiens) (UniProt Q13188); experiment: Inhibition of wild-type human partial length MST2 (D17 to E318 residues) expressed in bacterial expression system assessed as residual activity at 1 uM by Kinomescan method relative to control
# [7] = molecular target: Serine/threonine-protein kinase LATS1 (Homo sapiens) (UniProt O95835); experiment: Inhibition of wild-type human partial length LATS1 (Q678 to V1130 residues) expressed in bacterial expression system assessed as residual activity at 1 uM by Kinomescan method relative to control
# [8] = molecular target: Serine/threonine-protein kinase 17A (Homo sapiens) (UniProt Q9UEE5); experiment: Inhibition of wild-type human partial length DRAK1 (R32 to E363 residues) expressed in bacterial expression system assessed as residual activity at 1 uM by Kinomescan method
# [9] = molecular target: cGMP-dependent protein kinase 2 (Homo sapiens) (UniProt Q13237); experiment: Inhibition of wild-type human partial length PRKG2 (S422 to F762 residues) expressed in mammalian expression system assessed as residual activity at 1 uM by Kinomescan method relative to control
# [10] = molecular target: CDK9/Cyclin K (Homo sapiens) (UniProt P50750+O75909); experiment: Inhibition of wild-type human full length CDK9 (M1 to F372 residues)/cyclin K expressed in bacterial expression system assessed as residual activity at 1 uM by Kinomescan method relative to control
# [11] = molecular target: Serine/threonine-protein kinase SIK3 (Homo sapiens) (UniProt Q9Y2K2); experiment: Inhibition of SIK3 (unknown origin) assessed as residual activity at 1 uM by Kinomescan method relative to control
# [12] = molecular target: Macrophage colony-stimulating factor 1 receptor (Homo sapiens) (UniProt P07333); experiment: Inhibition of FMS (unknown origin) assessed as residual activity at 1 uM by Kinomescan method relative to control
# [13] = molecular target: Calcium/calmodulin-dependent protein kinase type 1G (Homo sapiens) (UniProt Q96NX5); experiment: Inhibition of wild-type human partial length CAMK1G (M1 to A342 residues) expressed in bacterial expression system assessed as residual activity at 1 uM by Kinomescan method relative to control
# [14] = molecular target: Fibroblast growth factor receptor 2 (Homo sapiens) (UniProt P21802); experiment: Inhibition of wild type human partial length FGFR2 (D457 to E769 residues) expressed in bacterial expression system assessed as residual activity at 1 uM by Kinomescan method relative to control
# [15] = molecular target: Ephrin type-B receptor 4 (Homo sapiens) (UniProt P54760); experiment: Inhibition of wild-type human partial length EPHB4 (H585 to G892 residues) expressed in bacterial expression system assessed as residual activity at 1 uM by Kinomescan method relative to control
# [16] = molecular target: RAC-beta serine/threonine-protein kinase (Homo sapiens) (UniProt P31751); experiment: Inhibition of wild-type human partial length AKT2 expressed in bacterial expression system assessed as residual activity at 1 uM by Kinomescan method relative to control
# [17] = molecular target: Tyrosine-protein kinase SYK (Homo sapiens) (UniProt P43405); experiment: Inhibition of wild-type human partial length SYK (D354 to N635 residues) expressed in bacterial expression system assessed as residual activity at 1 uM by Kinomescan method relative to control
# [18] = molecular target: Mitogen-activated protein kinase kinase kinase 9 (Homo sapiens) (UniProt P80192); experiment: Inhibition of wild-type human partial length MLK1 (V88 to W426 residues) expressed in bacterial expression system assessed as residual activity at 1 uM by Kinomescan method relative to control
# [19] = molecular target: RAC-gamma serine/threonine-protein kinase (Homo sapiens) (UniProt Q9Y243); experiment: Inhibition of wild-type human partial length AKT3 expressed in bacterial expression system assessed as residual activity at 1 uM by Kinomescan method relative to control
# [20] = molecular target: Tyrosine-protein kinase Yes (Homo sapiens) (UniProt P07947); experiment: Inhibition of wild-type human partial length YES (T257 to L543 residues) expressed in bacterial expression system assessed as residual activity at 1 uM by Kinomescan method relative to control
# [21] = molecular target: Aurora kinase B (Homo sapiens) (UniProt Q96GD4); experiment: Inhibition of wild-type human partial length AURKB (D25 to A303 residues) expressed in mammalian expression system assessed as residual activity at 1 uM by Kinomescan method relative to control
# [22] = molecular target: Misshapen-like kinase 1 (Homo sapiens) (UniProt Q8N4C8); experiment: Inhibition of wild-type human partial length MINK (M1 to K312 residues) expressed in mammalian expression system assessed as residual activity at 1 uM by Kinomescan method relative to control
# [23] = molecular target: Dual specificity tyrosine-phosphorylation-regulated kinase 3 (Homo sapiens) (UniProt O43781); experiment: Inhibition of DYRK3 (unknown origin) assessed as residual activity at 1 uM by Kinomescan method relative to control
# [24] = molecular target: Serine/threonine-protein kinase WNK3 (Homo sapiens) (UniProt Q9BYP7); experiment: Inhibition of wild-type human partial length WNK3 (M1 to D434 residues) expressed in mammalian expression system assessed as residual activity at 1 uM by Kinomescan method relative to control
# [25] = molecular target: Ephrin type-A receptor 6 (Homo sapiens) (UniProt Q9UF33); experiment: Inhibition of wild-type human partial length EPHA6 (Y700 to E1046 residues) expressed in bacterial expression system assessed as residual activity at 1 uM by Kinomescan method relative to control
# [26] = molecular target: Serine/threonine-protein kinase SIK2 (Homo sapiens) (UniProt Q9H0K1); experiment: Inhibition of wild-type human full length SIK2 (M1 to N926 residues) expressed in bacterial expression system assessed as residual activity at 1 uM by Kinomescan method relative to control
# Serine/threonine-protein kinase LATS1 (Homo sapiens), sequence (O95835 whole entry, the tested form may be a part): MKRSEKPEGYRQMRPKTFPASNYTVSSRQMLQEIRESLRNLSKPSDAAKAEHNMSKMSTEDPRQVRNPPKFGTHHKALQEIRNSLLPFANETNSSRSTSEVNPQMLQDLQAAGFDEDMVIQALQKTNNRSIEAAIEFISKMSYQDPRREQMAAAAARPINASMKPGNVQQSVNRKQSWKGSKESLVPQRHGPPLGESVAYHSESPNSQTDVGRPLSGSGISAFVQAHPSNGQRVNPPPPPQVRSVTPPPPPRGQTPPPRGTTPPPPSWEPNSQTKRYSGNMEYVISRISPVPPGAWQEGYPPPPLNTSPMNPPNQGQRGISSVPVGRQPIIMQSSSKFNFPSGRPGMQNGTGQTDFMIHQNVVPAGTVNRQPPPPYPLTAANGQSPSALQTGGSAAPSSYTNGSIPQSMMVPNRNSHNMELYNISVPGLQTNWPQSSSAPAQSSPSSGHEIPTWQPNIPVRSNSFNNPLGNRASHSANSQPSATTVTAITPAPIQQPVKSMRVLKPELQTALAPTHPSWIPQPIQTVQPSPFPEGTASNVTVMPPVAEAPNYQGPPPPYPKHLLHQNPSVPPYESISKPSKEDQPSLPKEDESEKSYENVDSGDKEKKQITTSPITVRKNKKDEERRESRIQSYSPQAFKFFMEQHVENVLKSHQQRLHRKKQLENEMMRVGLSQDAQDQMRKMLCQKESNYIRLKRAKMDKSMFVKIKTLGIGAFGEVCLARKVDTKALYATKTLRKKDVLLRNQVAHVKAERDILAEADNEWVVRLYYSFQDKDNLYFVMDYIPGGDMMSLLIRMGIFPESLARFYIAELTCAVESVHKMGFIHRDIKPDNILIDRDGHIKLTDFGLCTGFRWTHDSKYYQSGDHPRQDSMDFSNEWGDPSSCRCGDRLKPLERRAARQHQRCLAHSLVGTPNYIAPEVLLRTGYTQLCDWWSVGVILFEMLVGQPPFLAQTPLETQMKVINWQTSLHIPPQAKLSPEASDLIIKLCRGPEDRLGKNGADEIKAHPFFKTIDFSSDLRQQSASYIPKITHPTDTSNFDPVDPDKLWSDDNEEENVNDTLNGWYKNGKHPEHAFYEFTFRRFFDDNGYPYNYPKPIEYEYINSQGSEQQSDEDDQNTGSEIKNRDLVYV
# Tyrosine-protein kinase Yes (Homo sapiens), sequence (P07947 2-543 limits assumed): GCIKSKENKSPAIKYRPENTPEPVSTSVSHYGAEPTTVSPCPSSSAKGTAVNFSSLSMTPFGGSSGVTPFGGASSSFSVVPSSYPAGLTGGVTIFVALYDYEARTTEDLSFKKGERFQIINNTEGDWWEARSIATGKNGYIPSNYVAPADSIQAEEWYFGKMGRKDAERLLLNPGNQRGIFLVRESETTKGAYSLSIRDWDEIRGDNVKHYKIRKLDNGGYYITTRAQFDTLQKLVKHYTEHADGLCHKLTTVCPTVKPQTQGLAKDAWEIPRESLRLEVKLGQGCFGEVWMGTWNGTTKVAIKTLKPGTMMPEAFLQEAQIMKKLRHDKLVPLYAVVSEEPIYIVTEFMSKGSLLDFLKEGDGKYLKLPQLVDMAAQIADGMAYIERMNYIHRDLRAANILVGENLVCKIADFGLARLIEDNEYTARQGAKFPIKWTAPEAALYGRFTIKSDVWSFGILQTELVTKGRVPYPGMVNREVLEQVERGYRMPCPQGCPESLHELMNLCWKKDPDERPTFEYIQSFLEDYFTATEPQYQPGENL
# MAP kinase-activated protein kinase 5 (Homo sapiens), sequence (Q8IW41 whole entry, the tested form may be a part): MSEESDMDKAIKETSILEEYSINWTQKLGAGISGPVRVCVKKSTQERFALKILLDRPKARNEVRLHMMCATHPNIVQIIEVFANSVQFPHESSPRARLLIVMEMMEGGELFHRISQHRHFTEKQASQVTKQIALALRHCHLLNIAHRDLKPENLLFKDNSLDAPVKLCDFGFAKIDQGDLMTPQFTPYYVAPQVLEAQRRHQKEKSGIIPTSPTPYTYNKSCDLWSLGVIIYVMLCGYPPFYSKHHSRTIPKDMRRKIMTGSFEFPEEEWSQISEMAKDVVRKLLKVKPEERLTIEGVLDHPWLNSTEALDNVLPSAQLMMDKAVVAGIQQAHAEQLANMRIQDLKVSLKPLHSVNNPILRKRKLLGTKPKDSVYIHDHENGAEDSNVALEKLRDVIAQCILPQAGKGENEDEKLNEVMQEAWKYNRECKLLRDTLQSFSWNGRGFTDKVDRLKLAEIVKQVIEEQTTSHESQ
# Serine/threonine-protein kinase 17A (Homo sapiens), sequence (Q9UEE5 whole entry, the tested form may be a part): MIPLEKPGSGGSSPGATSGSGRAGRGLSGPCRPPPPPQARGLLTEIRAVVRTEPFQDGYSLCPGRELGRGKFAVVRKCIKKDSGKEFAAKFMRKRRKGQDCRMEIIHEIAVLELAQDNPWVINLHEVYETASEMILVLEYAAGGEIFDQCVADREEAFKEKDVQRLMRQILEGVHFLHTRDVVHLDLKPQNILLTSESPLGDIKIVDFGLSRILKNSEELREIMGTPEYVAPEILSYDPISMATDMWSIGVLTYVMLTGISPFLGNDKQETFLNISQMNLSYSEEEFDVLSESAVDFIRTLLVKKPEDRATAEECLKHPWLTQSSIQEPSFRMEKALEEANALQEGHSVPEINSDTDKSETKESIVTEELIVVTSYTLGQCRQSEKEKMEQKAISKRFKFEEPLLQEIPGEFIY
# Proto-oncogene tyrosine-protein kinase Src (Homo sapiens), sequence (P12931 2-536 limits assumed): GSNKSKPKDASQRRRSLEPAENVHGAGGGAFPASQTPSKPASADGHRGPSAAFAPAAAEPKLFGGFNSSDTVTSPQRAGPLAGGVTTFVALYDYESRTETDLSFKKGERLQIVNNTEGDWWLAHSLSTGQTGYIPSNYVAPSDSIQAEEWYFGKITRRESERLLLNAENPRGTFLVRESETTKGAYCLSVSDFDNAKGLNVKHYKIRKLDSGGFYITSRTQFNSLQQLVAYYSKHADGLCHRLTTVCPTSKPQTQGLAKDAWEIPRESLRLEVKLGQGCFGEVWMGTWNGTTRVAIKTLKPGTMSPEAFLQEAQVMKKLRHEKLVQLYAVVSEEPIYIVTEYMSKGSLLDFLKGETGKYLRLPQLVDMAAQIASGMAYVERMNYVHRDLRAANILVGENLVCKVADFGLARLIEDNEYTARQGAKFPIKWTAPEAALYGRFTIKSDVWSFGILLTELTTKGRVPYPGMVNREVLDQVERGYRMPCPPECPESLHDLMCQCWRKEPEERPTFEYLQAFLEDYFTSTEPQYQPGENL
# Ephrin type-A receptor 6 (Homo sapiens), sequence (Q9UF33 whole entry, the tested form may be a part): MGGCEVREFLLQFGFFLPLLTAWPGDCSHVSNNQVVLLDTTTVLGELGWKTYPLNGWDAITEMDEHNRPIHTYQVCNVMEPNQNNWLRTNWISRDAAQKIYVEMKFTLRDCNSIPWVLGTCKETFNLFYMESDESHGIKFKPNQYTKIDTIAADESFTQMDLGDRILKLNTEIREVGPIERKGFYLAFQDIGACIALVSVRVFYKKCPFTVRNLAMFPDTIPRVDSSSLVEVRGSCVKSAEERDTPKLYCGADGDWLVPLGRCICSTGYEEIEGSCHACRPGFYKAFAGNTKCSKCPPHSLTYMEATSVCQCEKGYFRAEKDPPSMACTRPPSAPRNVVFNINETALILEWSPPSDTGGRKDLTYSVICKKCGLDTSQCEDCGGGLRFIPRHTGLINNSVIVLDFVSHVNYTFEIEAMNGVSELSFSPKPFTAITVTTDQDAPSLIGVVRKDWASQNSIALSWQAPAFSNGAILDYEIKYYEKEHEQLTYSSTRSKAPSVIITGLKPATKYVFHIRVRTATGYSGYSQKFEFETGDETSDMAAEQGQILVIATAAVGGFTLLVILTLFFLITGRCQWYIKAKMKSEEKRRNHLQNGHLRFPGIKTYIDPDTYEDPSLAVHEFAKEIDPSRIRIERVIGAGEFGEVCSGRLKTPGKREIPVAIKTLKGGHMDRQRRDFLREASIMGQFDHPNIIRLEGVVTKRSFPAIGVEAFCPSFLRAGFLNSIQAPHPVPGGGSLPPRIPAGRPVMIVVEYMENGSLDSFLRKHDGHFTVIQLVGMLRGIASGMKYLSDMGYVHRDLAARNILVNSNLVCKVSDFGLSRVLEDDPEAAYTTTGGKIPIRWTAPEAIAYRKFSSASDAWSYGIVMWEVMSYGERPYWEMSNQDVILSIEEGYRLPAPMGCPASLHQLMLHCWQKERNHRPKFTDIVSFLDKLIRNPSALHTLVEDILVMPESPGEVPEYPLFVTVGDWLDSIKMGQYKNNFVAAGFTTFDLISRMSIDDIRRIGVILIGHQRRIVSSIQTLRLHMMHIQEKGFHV
# cGMP-dependent protein kinase 2 (Homo sapiens), sequence (Q13237 whole entry, the tested form may be a part): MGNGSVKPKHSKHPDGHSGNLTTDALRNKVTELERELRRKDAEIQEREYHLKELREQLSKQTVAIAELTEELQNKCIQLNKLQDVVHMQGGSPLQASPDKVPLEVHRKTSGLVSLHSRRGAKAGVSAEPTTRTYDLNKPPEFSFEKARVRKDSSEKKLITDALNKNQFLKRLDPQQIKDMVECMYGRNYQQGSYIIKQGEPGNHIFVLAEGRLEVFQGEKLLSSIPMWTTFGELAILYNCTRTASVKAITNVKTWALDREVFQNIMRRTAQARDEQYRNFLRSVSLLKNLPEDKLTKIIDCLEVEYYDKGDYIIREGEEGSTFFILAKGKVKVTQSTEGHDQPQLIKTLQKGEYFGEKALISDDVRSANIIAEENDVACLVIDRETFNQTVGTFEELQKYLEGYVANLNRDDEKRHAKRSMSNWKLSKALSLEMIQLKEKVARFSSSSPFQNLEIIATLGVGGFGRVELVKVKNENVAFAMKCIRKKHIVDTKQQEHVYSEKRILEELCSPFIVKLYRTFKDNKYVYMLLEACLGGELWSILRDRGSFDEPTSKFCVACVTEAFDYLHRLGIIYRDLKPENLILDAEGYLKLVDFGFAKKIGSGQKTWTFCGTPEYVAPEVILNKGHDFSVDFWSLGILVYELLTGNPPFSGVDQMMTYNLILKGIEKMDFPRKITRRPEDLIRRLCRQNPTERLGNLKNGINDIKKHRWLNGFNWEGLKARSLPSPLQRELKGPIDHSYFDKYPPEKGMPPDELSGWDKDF
smiles,measurement,setting,value
CCOc1nc(Nc2ccc(C(=O)N3CCOCC3)cc2OC)nc2[nH]ccc12,Activity,[1],83.7%
same,Activity,[2],81.8%
same,Activity,[3],121%
same,Activity,[4],101%
same,Activity,[5],99%
same,Activity,[6],99.3%
same,Activity,[7],101%
same,Activity,[8],97.9%
same,Activity,[9],104%
same,Activity,[10],103%
same,Activity,[11],106%
same,Activity,[12],106%
same,Activity,[13],106%
same,Activity,[14],111%
same,Activity,[15],96.3%
same,Activity,[16],97.1%
same,Activity,[17],92.1%
same,Activity,[18],83.9%
same,Activity,[19],98.8%
same,Activity,[20],94.4%
same,Activity,[21],90.7%
same,Activity,[22],107%
same,Activity,[23],96.4%
same,Activity,[24],71.8%
same,Activity,[25],100%
same,Activity,[26],97%

# — ChEMBL document CHEMBL4715821, “Discovery of 4-ethoxy-7H-pyrrolo[2,3-d]pyrimidin-2-amines as potent, selective and orally bioavailable LRRK2 inhibitors” (Bioorg Med Chem Lett, 2018)
